Data reported in patent US11266149B2, “Herbicidal compositions” (University of Durham, priority 2016, dated 2022).
“Also recorded” adds a separate entry of the source.

Columns and labels:
[1] = tested on: Arabidopsis plants; test: Spray treatment of Arabidopsis plants; format: in vivo, Arabidopsis thaliana
Protocol: (§1) Plant material—Arabidopsis thaliana ecotype Columbia-0 was used in all experiments that utilised Arabidopsis. For spray experiments, many seeds were sown in compost inside pots with a base area of […]. The plants were treated with herbicide formulations by spraying when they were 2-3 weeks old. To obtain leaf discs, individual plants were sown in single pots and grown for 4 weeks. Leaf discs of 1-cm diameter were cored from fully expanded leaves. Glyphosate-resistant and susceptible biotypes of Conyza sumatrensis [(Retz.) E. Walker] were obtained from an olive grove in Italy. For spraying experiments, many plants were sown in compost inside pots with a base area of 81 cm^2. Plants were spray-treated at 2 weeks from sowing. For leaf disc experiments, individual plants were sown in single pots and grown for 8 weeks before coring 1-cm diameter leaf discs from fully expanded leaves. All plants were grown in a 16 h photoperiod (˜200 μmol·m^−2·s^−1) at 22° C.
(§2) Chemicals—Shikimic acid and pure glyphosate were purchased from Sigma-Aldrich (Dorset, UK). These were used to make stock solutions in water that were adjusted to pH 5.5 and used for treatment of leaf discs. Shikimate-3-phosphate trisodium salt was purchased from Santa Cruz Biotechnology (Dallas, Tex.). Gallup® 360 (Barclay Chemicals Manufacturing Ltd, Dublin, Ireland), a formulation of 360 g/L glyphosate, was used for spray treatments after diluting down to the desired rate.
(§3) Treatments—Leaf discs of 1 cm-diameter were cored from plants and floated on 10 mL solutions inside Petri dishes. A minimum of 5 replicate discs per treatment arising from 5 independent plants were used. For dark incubation, the Petri dishes were wrapped in aluminium foil to exclude light. Leaf discs were harvested at time-points indicated in the Figure legends for photographing or for shikimic acid analysis. For spray treatments, glyphosate was formulated in 3 mL with enough Gallup® to achieve the desired rate on a surface area of 36 cm^2 or 81 cm^2 pots. A commercial herbicide enhancer oil Activator-G™ (Agrigem Ltd., Market Rasen, UK) was added as an adjuvant to spray at a final rate of 1 L/ha. Shikimate-3-phosphate was added to a final concentration of 500 μM in the 3 mL. Control plants were sprayed with water containing Activator-G only.
Next we turned our attention to the inexplicable retardation of shikimate conversion to shikimate-3-phosphate during exposure to glyphosate. We proposed the hypothesis that shikimate-3-phosphate is a critical component required for glyphosate to be phytotoxic and that glyphosate-susceptible plants attempt to block its formation in order to avoid death. We sprayed 2-week-old Arabidopsis plants with a formulation of glyphosate at different rates with or without shikimate-3-phosphate as an additive. […]

[2] = tested on: phenylalanine ammonia-lyase (PAL); conditions: Buckwheat PAL inhibition; cited from earlier work
[3] = tested on: Conyza sumatrensis leaf discs; test: Leaf discs floated on glyphosate solutions, phytotoxicity / cell death; format: cell-based
Protocol: as §1, §2, §3
While studying programmed cell death, we noted that light is a crucial factor in the activation of plant cell death (Chivasa et al., 2009; Wang et al., 2012; Smith et al., 2014). We wondered if deprivation of light could also block glyphosate toxicity. To investigate this, we used a previously published in vitro assay (Teaster and Hoagland, 2013) in which leaf discs are floated over glyphosate solutions of desired concentration.

[4] = tested on: Conyza sumatrensis leaf discs; test: Shikimic acid accumulation in leaf discs; format: cell-based
Protocol: as §3
Shikimic acid analysis—Leaf discs floating on treatment solutions were blotted dry, added to microfuge tubes containing 125 μL of 0.25 N HCL before snap-freezing in liquid nitrogen and storing at −20° C. Samples were thawed at room temperature, vortexed for 5 min, and then incubated at 60° C. for 15 min. Aliquots of 25 μL were withdrawn and mixed with 100 μL of 0.25% (w/v) periodic acid/0.25% m-periodate in fresh microfuge tubes. After 30 min incubation at 37° C., 100 μL of 0.6 N NaOH/0.22 M Na2SO3 were added and the volume made up to 1 mL with distilled water. The shikimic acid in the samples was determined by spectrophotometric measurements at 382 nm against a reagent only blank and using a calibration curve of shikimic acid standards. The shikimic acid accumulating in response to glyphosate treatment was calculated as the difference between the reading from mock-treated control leaf discs and the glyphosate-treated discs. Values were expressed as μg/mL shikimic acid.

[5] = tested on: Arabidopsis leaf discs; test: Shikimic acid accumulation in Arabidopsis leaf discs; format: cell-based, Arabidopsis thaliana; conditions: 25 μM glyphosate
Protocol: as §3, with “Control plants were sprayed with water containing Activator-G only.” left out
Shikimic acid analysis—Leaf discs floating on treatment solutions were blotted dry, added to microfuge tubes containing 125 μL of 0.25 N HCL before snap-freezing in liquid nitrogen and storing at −20° C. […] The shikimic acid in the samples was determined by spectrophotometric measurements at 382 nm against a reagent only blank and using a calibration curve of shikimic acid standards. The shikimic acid accumulating in response to glyphosate treatment was calculated as the difference between the reading from mock-treated control leaf discs and the glyphosate-treated discs. Values were expressed as μg/mL shikimic acid. […]

[6] = tested on: Arabidopsis shikimate pathway genes; test: Quantitative real-time PCR of shikimate pathway genes in leaf discs; format: cell-based, Arabidopsis thaliana
Protocol: Gene expression analysis—RNA was extracted from leaf tissues using the Spectrum Plant Total RNA kit (Sigma-Aldrich) according to the manufacturer's instructions. Each sample was a pool of five 1 cm-diameter leaf discs arising from 5 independent plants. First strand cDNA synthesis was performed using 4 μg total RNA and oligod(T) using Promega (Southampton, UK) GoScript Reverse Transcription System. Quantitative real-time polymerase chain reaction was performed using SensiFast reagent kit (Bioline, London, UK) on a Rotorgene-Q (Qiagen, Crawley, UK). Each 20 μL reaction contained 10 μL SensiFast reagent, 5 μL cDNA template that had been diluted 1:8, and 8 pmoles each primer (forward and reverse primers). Cycling conditions used were as follows: denaturation at 95° C. for 2 mins followed by 40 cycles of 95° C. for 10 sec, annealing at 56° C. for 15 sec, and extension at 72° C. for 25 sec. Data analysis was performed using REST2009 (Qiagen, Crawley, UK) using ACTIN2 (At3g18780) and EIF4 (At3g13920) as reference control genes. Triplicate samples per treatment per time-point were analysed in order to calculate a mean and standard deviation.
Arabidopsis leaf discs were floated on 25 μM glyphosate solutions and incubated in light or total darkness. Samples were harvested at various intervals within 72 h of treatment for quantification of shikimic acid and analysis of gene expression using quantitative real-time PCR. […] All three DAPS genes were differentially regulated, only one of the five putative SK genes responded to glyphosate, both EPSPS genes were responsive, and the chorismate synthase (CS) genes responded as well (FIG. 6). Up-regulation of the shikimate pathway components triggered by blockading flux with glyphosate is a typical metabolic response.

[7] = tested on: Glyphosate-resistant (GR) and susceptible (GS) C. sumatrensis plants; test: Cut shoots placed in glyphosate solution with or without gluconic acid; format: in vivo, Conyza sumatrensis; conditions: 100 μM glyphosate only, ten days (FIG. 8)
Protocol: Glyphosate-resistant (GR) and susceptible (GS) C. sumatrensis plants were germinated in soil and transferred to solutions of 100 μM glyphosate with or without 5 mM gluconic acid.
Because the pentose phosphate pathway gene GntK responds to glyphosate, we tested if intermediates in the pathway might also influence glyphosate toxicity (FIG. 8). Glyphosate resistant (GR) and glyphosate susceptible (GS) Conyza sumatrensis were germinated in soil and the shoots cut off at the base of the stem and placed in 2 mL of 100 μM glyphosate with or without gluconic acid at various concentrations. […] Cessation of growth and development of chlorosis are key hallmarks of glyphosate toxicity.

[8] = 25° C.; cited from earlier work
[9] = tested on: Galium mollugo cells; conditions: glyphosate-treated Galium mollugo cells; cited from earlier work
[10] = glyphosate, dark incubation (FIG. 6)
[11] = glyphosate-treated leaf discs (FIG. 6)

Question: Which “adverse effects on Arabidopsis” value ([1]; 500 μM shikimate-3-phosphate on its own, spray (FIG. 7C)) does the source give for `O=C([O-])C1=C[C@@H](OP(=O)([O-])[O-])[C@@H](O)[C@H](O)C1.[Na+].[Na+].[Na+]` [Shikimate-3-phosphate, Shikimate-3-phosphate trisodium salt] here?
Answer: did not have any adverse effects

Question: Which “phenylalanine accumulation, light versus dark” value [2] does the source give for `NO[C@@H](Cc1ccccc1)C(=O)O` [L-α-aminooxy-β-phenylpropionic acid] here?
Answer: three-fold higher phenylalanine accumulation in light than in the dark

Question: With `O=C(O)CNCP(=O)(O)O` [glyphosate, N-[phosphonomethyl] glycine] as the compound, how does the “phytotoxic effects at much higher glyphosate concentration” value ([3]; 1 mM glyphosate, dark incubation, 3 days (FIG. 2C)) read?
Answer: still requires light for phytotoxicity; also recorded: dark-incubation suppressed the phytotoxic effects

Question: And the “phytotoxic effects of glyphosate on leaf discs” value ([3]; incubated in complete darkness, 100 μM glyphosate, 14 days (FIG. 2A))?
Answer: protected from the phytotoxic effects

Question: What about the “viability of leaf discs” value ([3]; resistant biotype, 100 μM glyphosate on its own (FIG. 4A)) of the same compound?
Answer: did not affect the viability

Question: And the “shikimate accumulation and cell death by biotype” value ([3]; susceptible and resistant biotypes (FIG. 3))?
Answer: activates shikimate accumulation and cell death in the susceptible, but not resistant biotype

Question: What about the “time until cell death (chlorosis, browning) easily visible” value ([3]; susceptible biotype, leaf discs floated on glyphosate) of the same compound?
Answer: 10 to 14 days

Question: What about the “shikimic acid accumulation in leaf tissues” value ([4]; continuous dark incubation (FIG. 2B)) of the same compound?
Answer: suppressed shikimic acid accumulation

Question: And the “shikimic acid level, susceptible versus resistant biotype” value ([4]; glyphosate 25-200 μM, one week (FIG. 3B))?
Answer: significantly higher levels of shikimic acid than the resistant biotype

Question: What about the “shikimic acid concentration in leaf tissues” value ([4]; light-dark cycle, one week after treatment (FIG. 2B)) of the same compound?
Answer: massive rise

Question: What about the “maximum concentration of shikimic acid accumulating” value ([4]; susceptible C. sumatrensis, within 3 days of exposure to glyphosate) of the same compound?
Answer: 10 to 15 mM

Question: What about the shikimic acid accumulation ([5]; dark incubation (FIG. 5)) of the same compound?
Answer: suppressed shikimic acid accumulation

Question: And the shikimic acid accumulation ([5]; incubated in light, within 72 h (FIG. 5))?
Answer: significant accumulation of shikimic acid

Question: And the “expression of At2g16790 in the dark” value [6, 10]?
Answer: also stimulated in the dark

Question: And the “glyphosate-induced stimulation of other genes in the dark” value [6, 10]?
Answer: dark incubation suppressed glyphosate-induced stimulation

Question: And the “expression of DAHPS, SK, EPSPS and CS genes” value ([6]; glyphosate, in light (FIG. 6))?
Answer: significant changes in the expression

Question: And the “change in gene expression of At2g16790” value [6, 11]?
Answer: over 30 fold

Question: And the “change in gene expression of all other genes” value [6, 11]?
Answer: below 6 fold

Question: What about the “symptoms after foliar application by spraying” value ([1]; 2-week-old plants, Gallup 360 formulation (FIG. 7A)) of the same compound?
Answer: causes chlorosis and then cell death of apical meristems

Question: What about the “effects on plant growth” value ([1]; glyphosate 18 g/ha, spray, 3 weeks (FIG. 7B)) of the same compound?
Answer: no effects on plant growth

Question: And the “effects on Arabidopsis” value ([1]; glyphosate 36 g/ha, spray, 3 weeks (FIG. 7B))?
Answer: very modest effects

Question: And the “growth and chlorosis of GR plants” value ([7]; GR plants)?
Answer: have grown with expanded healthy and green leaves; also recorded: remained healthy and green

Question: What about the “growth and chlorosis of GS plants” value ([7]; GS plants) of the same compound?
Answer: stunted and chlorotic; also recorded: stopped growing and developed chlorosis, which eventually led to tissue death

Question: And the solubility in water [8]?
Answer: 1.16 % by weight

Question: And the “estimated cellular shikimic acid” value [9]?
Answer: 20 to 23 mM

Question: Which results are given for `O=C(O)C1=C[C@@H](O)[C@@H](O)[C@H](O)C1` [shikimic acid, Shikimic acid]?
Answer: breaking of glyphosate resistance at lower shikimic acid concentrations ([3]; with glyphosate, shikimic acid below 1-5 mM, 7 days (FIG. 4B)): unable to; shikimic acid concentrations able to break glyphosate resistance ([3]; with glyphosate, within 7 days of application (FIG. 4B)): 1 to 5 mM; phytotoxicity of shikimic acid on its own ([3]; without glyphosate, up to 15 mM): not phytotoxic; also recorded: did not cause any phytotoxicity
